Test results: US20140315812A1, “AMORPHOUS EZATIOSTAT ANSOLVATE” (Telik, Inc., priority 2011, published 2014)
Like-named read-outs stand apart in the source and are kept apart here.

Experiments:
[1] = Stability of the amorphous form by visual inspection after storage; format: physicochemical
Method: The stability of the amorphous form was evaluated by visual inspection of a sample of the amorphous form prepared above after being stored at about 0-5° C. for about 8 months.

[2] = in vitro; cited from earlier work
[3] = tested on: white blood cell production; conditions: cited from earlier work
[4] = in vivo; cited from earlier work
[5] = ezatiostat hydrochloride in a liposomal injectable formulation, MDS patients; cited from earlier work
[6] = tested on: HL-60 promyelocytic leukemia cells; conditions: in vitro; cited from earlier work
[7] = tested on: hematopoietic progenitor cells; conditions: normal human peripheral blood; cited from earlier work

| SMILES | visual inspection (color, texture, flowability, crystal formation) ([1]; stored at about 0-5° C. for about 8 months) | time for which the amorphous form is stable ([1]; under 0-5° C.) | potentiation of the activity of cytotoxic agents [2] | white blood cell production ([3]; animals in which white blood cells were depleted by treatment with cisplatin or fluorouracil) | white blood cell production ([3]; normal animals) | potentiation of the activity of cytotoxic agents [4] | hematologic improvement [5] | tolerability [5] | differentiation of HL-60 promyelocytic leukemia cells [6] | colony formation of hematopoietic progenitor cells [7] |
| --- | --- | --- | --- | --- | --- | --- | --- | --- | --- | --- |
| CCOC(=O)[C@@H](N)CCC(=O)N[C@@H](CSCc1ccccc1)C(=O)N[C@@H](C(=O)OCC)c1ccccc1.Cl [amorphous form, ezatiostat hydrochloride] | No change with respect to color, texture and flowability of the sample and no crystal formation was observed | at least 8 months | – | – | – | – | – | – | – | – |
| CCOC(=O)[C@@H](N)CCC(=O)N[C@@H](CSCc1ccccc1)C(=O)N[C@@H](C(=O)OCC)c1ccccc1 [Ezatiostat] | – | – | potentiate the activity of cytotoxic agents | increase white blood cell production | increase white blood cell production | potentiate the activity of cytotoxic agents | multi-lineage hematologic improvement | well tolerated | induce the differentiation | stimulate colony formation of all three lineages |
